Measurements as given in US12611446B2, “Cannabinoid product for improving musculoskeletal health” (Lonza Greenwood LLC, priority 2019, dated 2026).
Marks after values point to notes of the source that are not given here.

Assays:
[1] = tested on: Sodium Monoiodoacetate Induced Osteoarthritis(OA) in Rats; experiment: Effect of UC-II undenatured Type II collagen and cannabigerol on sodium monoiodoacetate (MIA) induced osteoarthritis in rats: metabolic, inflammatory and oxidative stress markers; assay type: in vivo; conditions: MIA-induced OA female rats, 30 days
Procedure: […] Treatment was started a week before injection with MIA and lasted 30 days. Biomarker testing was conducted prior to 24 days post MIA.
The dosage levels were the same.

[2] = tested on: Sodium Monoiodoacetate Induced Osteoarthritis(OA) in Rats; experiment: Effect of UC-II undenatured Type II collagen and cannabidiol on sodium monoiodoacetate (MIA) induced osteoarthritis in rats: metabolic, inflammatory and oxidative stress markers; assay type: in vivo; conditions: MIA-induced OA male Wistar rats, 30 days; for COMP (cartilage oligomeric matrix protein) / CRP (c-reactive protein) / IL-1β (interleukin-1β) / IL-6 (interleukin-6) / PGE2 (prostaglandin E2) / TNF-α (tumor necrosis factor α): serum
Procedure: OA was induced in male Wistar rats by intra-articular injection of sodium monoiodoacetate (MIA: 1 mg/kg). Treatment was started a week before injection with MIA and lasted 30 days. Biomarker testing was conducted prior to 24 days post MIA.

[3] = CBGI = CBG 1.62 mg/kg (combination: + UC-II 4 mg/kg)
[4] = CBGII = CBG 3.24 mg/kg (combination: + UC-II 4 mg/kg)
[5] = CBD1 = CBD 1.62 mg/kg (combination: + UC-II 4 mg/kg)
[6] = CBD2 = CBD 3.24 mg/kg (combination: + UC-II 4 mg/kg)

CCCCCc1cc(O)c(C/C=C(\C)CCC=C(C)C)c(O)c1 [CBG, cannabigerol]
CAT (catalase) [1, 3]: 136.44 ± 4.10^bc U/mL | COMP (cartilage oligometrix matrix protein) [1, 3]: 21.68 ± 2.13^b ng/mL | CRP (c-reactive protein) [1, 3]: 7.04 ± 0.85^b mg/L | GSH-Px (glutathione peroxidase) [1, 3]: 75.87 ± 4.87^bc U/mL | IL-1β (interleukin-1β) [1, 3]: 35.08 ± 3.41^b pg/mL | IL-6 (interleukin-6) [1, 3]: 33.14 ± 4.07^b pg/mL | IL-10 (interleukin-10) [1, 3]: 47.42 ± 5.77^d pg/mL | MDA (malondialdehyde) [1, 3]: 1.57 ± 0.07^b nmol/mL | Osteocalcin [1, 3]: 28.15 ± 1.34^ef μg/mL | PGE2 (prostaglandin E2) [1, 3]: 483 ± 36.86^b pg/mL | SOD (superoxide dismutase) [1, 3]: 49.13 ± 5.76^bc U/mL | TNF-α (tumor necrosis factor α) [1, 3]: 56.95 ± 5.61^b pg/mL | CAT (catalase) [1, 4]: 138.82 ± 2.71^b U/mL | COMP (cartilage oligometrix matrix protein) [1, 4]: 20.42 ± 2.16^b ng/mL | CRP (c-reactive protein) [1, 4]: 6.45 ± 0.82^bc mg/L | GSH-Px (glutathione peroxidase) [1, 4]: 77.29 ± 5.83^b U/mL | IL-1β (interleukin-1β) [1, 4]: 34.05 ± 2.80^b pg/mL | IL-6 (interleukin-6) [1, 4]: 32.41 ± 3.81^b pg/mL | IL-10 (interleukin-10) [1, 4]: 46.17 ± 4.91^d pg/mL | MDA (malondialdehyde) [1, 4]: 1.60 ± 0.07^b nmol/mL | Osteocalcin [1, 4]: 30.82 ± 1.35^de μg/mL | PGE2 (prostaglandin E2) [1, 4]: 473.71 ± 40.89^b pg/mL | SOD (superoxide dismutase) [1, 4]: 51.13 ± 3.75^bc U/mL | TNF-α (tumor necrosis factor α) [1, 4]: 54.32 ± 5.01^b pg/mL

C=C(C)[C@@H]1CCC(C)=C[C@H]1c1c(O)cc(CCCCC)cc1O [CBD, cannabidiol]
ALB (Albumin) [2, 5]: 3.59 ± 0.13^ab g/dL | ALP (Alkaline phosphatase) [2, 5]: 137.14 ± 8.95^a U/L | ALT (Alanine aminotransferase) [2, 5]: 69.14 ± 7.63 U/L | AST (Aspartate aminotransferase) [2, 5]: 108.43 ± 13.4 U/L | BUN (Blood Urine Nitrogen) [2, 5]: 23.57 ± 2.27 mg/dL | CAT (catalase) [2, 5]: 125.79 ± 7.41^d U/mL | CR (Creatine) [2, 5]: 0.45 ± 0.11 mg/dL | GLOB (Globulin) [2, 5]: 3.16 ± 0.05^b g/dL | GLU (Glucose) [2, 5]: 112.43 ± 11.52 mg/dL | MDA (malondialdehyde) [2, 5]: 1.28 ± 0.08^b nmol/mL | OCN (osteocalcin) [2, 5]: 28.20 ± 1.74^e μg/mL | SOD (superoxide dismutase) [2, 5]: 50.00 ± 1.82^de U/mL | TBIL (Total Bilirubin) [2, 5]: 0.20 ± 0.01 mg/dL | TP (Total Protein) [2, 5]: 6.71 ± 0.17 g/dL | ALB (Albumin) [2, 6]: 3.57 ± 0.14^ab g/dL | ALP (Alkaline phosphatase) [2, 6]: 140.43 ± 8.40^a U/L | ALT (Alanine aminotransferase) [2, 6]: 70.29 ± 5.56 U/L | AST (Aspartate aminotransferase) [2, 6]: 110.29 ± 12.58 U/L | BUN (Blood Urine Nitrogen) [2, 6]: 24.23 ± 1.27 mg/dL | CAT (catalase) [2, 6]: 139.36 ± 3.44b^c U/mL | CR (Creatine) [2, 6]: 0.45 ± 0.08 mg/dL | GLOB (Globulin) [2, 6]: 3.27 ± 0.23^ab g/dL | GLU (Glucose) [2, 6]: 109.86 ± 5.81 mg/dL | GSH-Px (glutathione peroxidase) [2, 6]: 85.31 ± 3.85^bc U/mL | MDA (malondialdehyde) [2, 6]: 1.24 ± 0.16^b nmol/mL | OCN (osteocalcin) [2, 6]: 33.35 ± 3.18^d μg/mL | SOD (superoxide dismutase) [2, 6]: 58.04 ± 2.76^c U/mL | TBIL (Total Bilirubin) [2, 6]: 0.20 ± 0.01 mg/dL | TP (Total Protein) [2, 6]: 6.87 ± 0.37 g/dL | COMP (cartilage oligomeric matrix protein) [2, 5]: 21.22 ± 1.77^c ng/mL | CRP (c-reactive protein) [2, 5]: 6.39 ± 1.06^c mg/L | IL-1β (interleukin-1β) [2, 5]: 34.92 ± 2.23^bc pg/mL | IL-6 (interleukin-6) [2, 5]: 30.83 ± 2.17^c pg/mL | PGE2 (prostaglandin E2) [2, 5]: 504.41 ± 37.35^bc pg/mL | TNF-α (tumor necrosis factor α) [2, 5]: 46.58 ± 0.87^c pg/mL | COMP (cartilage oligomeric matrix protein) [2, 6]: 16.32 ± 1.91^d ng/mL | CRP (c-reactive protein) [2, 6]: 3.95 ± 0.20^d mg/L | IL-1β (interleukin-1β) [2, 6]: 31.94 ± 1.91^cd pg/mL | IL-6 (interleukin-6) [2, 6]: 28.65 ± 2.17^c pg/mL | PGE2 (prostaglandin E2) [2, 6]: 469.24 ± 11.42^cd pg/mL | TNF-α (tumor necrosis factor α) [2, 6]: 41.97 ± 1.31^c pg/mL
